The values below come from patent US20230059136A1, “THE COMPOUNDS AND COMPOSITIONS FOR TREATING CONDITIONS ASSOCIATED WITH NLRP ACTIVITY” (Novartis AG, priority 2018, published 2023).

The first test deals with IL-1β production in PMA-differentiated THP-1 cells. The experiment in a line: IL-1β production in PMA-differentiated THP-1 cells stimulated with gramicidin (hTHP-1 assay containing 2% fetal bovine serum). The class given is cell-based, human. Conditions: Homo sapiens, THP-1, Table B1; 2% fetal bovine serum; cells printed as numeric bound; read-out: hTHP-1 IC50 (Average IC50 of compounds in hTHP-1 assay). The procedure, abridged: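 IL-1β release was read by HTRF on supernatants of 50,000 PMA-primed (20 ng/ml, 16-18 h) THP-1 cells/well in 2% FBS medium. Cells saw compound for 1 h (11-point titration from 100 μM, 0.37% DMSO) before a 2 h gramicidin (5 μM) challenge.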
For the compound `CC(C)c1cc(C(=O)CC2CCCCC2)cc(C(C)C)c1CC(=O)N=S(N)(=O)c1cc(C(C)(C)O)n(-c2ccccc2)n1` (single isomer, unassigned) [Example 286, (S) or (R)-N-(amino (5-(2-hydroxypropan-2-yl)-1-phenyl-1H-pyrazol-3-yl)(oxo)-λ^6-sulfaneylidene)-2-(4-(2-cyclohexylacetyl)-2,6-diisopropylphenyl) acetamide], the IC50 – broadly, the concentration needed to halve the response being measured – was above 30 µM.

For the compound `CC(C)c1cc(COC2CCCC2)cc(C(C)C)c1CC(=O)N=S(N)(=O)c1cnc(C(C)(C)O)s1` (single isomer, unassigned) [Example 288, (S) or (R)-N-(amino(2-(2-hydroxypropan-2-yl)thiazol-5-yl)(oxo)-λ^6-sulfaneylidene)-2-(4-((cyclopentyloxy)methyl)-2,6-diisopropylphenyl) acetamide], the IC50 is above 30 µM. In the case of `CCc1c2c(cc(C(C)C)c1CC(=O)N=S(N)(=O)c1cnc(C(C)(C)O)s1)COC2` (single isomer, unassigned) [Example 290, (S) or (R)-N-(amino(2-(2-hydroxypropan-2-yl)thiazol-5-yl)(oxo)-λ^6-sulfaneylidene)-2-(4-ethyl-6-isopropyl-1,3-dihydroisobenzofuran-5-yl)acetamide], the IC50 was above 30 µM.

As to `CCc1cc2c(c(C(C)C)c1CC(=O)N=S(N)(=O)c1cnc(C(C)(C)O)s1)COC2` (single isomer, unassigned) [Example 292, (S) or (R)-N-(amino(2-(2-hydroxypropan-2-yl)thiazol-5-yl)(oxo)-λ^6-sulfaneylidene)-2-(6-ethyl-4-isopropyl-1,3-dihydroisobenzofuran-5-yl)acetamide], the IC50 was above 30 µM. On the same count and under the same terms, the same measure for `CCc1cc2c(c(C(C)C)c1CC(=O)N=S(N)(=O)c1cc(C(C)(C)O)cs1)COC2` (single isomer, unassigned) [Example 296, (S) or (R)-N-(amino(4-(2-hydroxypropan-2-yl)thiophen-2-yl)(oxo)-λ^6-sulfaneylidene)-2-(6-ethyl-4-isopropyl-1,3-dihydroisobenzofuran-5-yl)acetamide]: above 30 µM; for `CC(C)c1cc2c(c(C(C)C)c1CC(=O)N=S(N)(=O)c1ccc(C(C)(C)O)cc1)COC2` (single isomer, unassigned) [Example 302, (S) or (R)-N-(amino(4-(2-hydroxypropan-2-yl)phenyl)(oxo)-λ^6-sulfaneylidene)-2-(4,6-diisopropyl-1,3-dihydroisobenzofuran-5-yl)acetamide]: above 30 µM; for `CC(C)c1cc2c(c(C(C)C)c1CC(=O)N=S(N)(=O)c1cccc(C(C)(C)O)c1)COC2` (single isomer, unassigned) [Example 304, (S) or (R)-N-(amino(3-(2-hydroxypropan-2-yl)phenyl)(oxo)-λ^6-sulfaneylidene)-2-(4,6-diisopropyl-1,3-dihydroisobenzofuran-5-yl)acetamide]: above 30 µM. Same read-out and setting: for `CC(C)c1cc(C(F)F)nc(C(C)C)c1CC(=O)N=S(N)(=O)c1sc(CN(C)C)cc1F` (single isomer, unassigned) [Example 305, (S) or (R)-N-(amino(5-((dimethylamino)methyl)-3-fluorothiophen-2-yl) (oxo)-λ^6-sulfaneylidene)-2-(6-(difluoromethyl)-2,4-diisopropylpyridin-3-yl)acetamide] the value was above 30 µM.

On to `CC(C)c1cc2c(c(C(C)C)c1CC(=O)N=S(N)(=O)c1sc(CN(C)C)cc1F)COC2` (single isomer, unassigned) [Example 308, (S) or (R)-N-(amino(5-((dimethylamino)methyl)-3-fluorothiophen-2-yl)(oxo)-λ^6-sulfaneylidene)-2-(4,6-diisopropyl-1,3-dihydroisobenzofuran-5-yl)acetamide], for which the IC50 is above 30 µM.

The test is the same for the next values; noted with them: Homo sapiens, THP-1, Table B1; 2% fetal bovine serum; class symbols; read-out: hTHP-1 IC50 (Average IC50 of compounds in hTHP-1 assay).
For `CC(C)c1cc(COC2CCCC2)cc(C(C)C)c1CC(=O)N=S(N)(=O)c1cnc(C(C)(C)O)s1` (single isomer, unassigned) [Example 287, (R) or (S)-N-(amino(2-(2-hydroxypropan-2-yl)thiazol-5-yl)(oxo)-λ^6-sulfaneylidene)-2-(4-((cyclopentyloxy)methyl)-2,6-diisopropylphenyl) acetamide], the IC50 lay within 0.04 to 0.2 µM. Consider `CCc1c2c(cc(C(C)C)c1CC(=O)N=S(N)(=O)c1cnc(C(C)(C)O)s1)COC2` (single isomer, unassigned) [Example 289, (R) or (S)-N-(amino(2-(2-hydroxypropan-2-yl)thiazol-5-yl)(oxo)-λ^6-sulfaneylidene)-2-(4-ethyl-6-isopropyl-1,3-dihydroisobenzofuran-5-yl)acetamide], for which the IC50 fell in the range of 5 to 30 µM. The same measure, in the same setting: the same measure for `CCc1cc2c(c(C(C)C)c1CC(=O)N=S(N)(=O)c1cnc(C(C)(C)O)s1)COC2` (single isomer, unassigned) [Example 291, (R) or (S)-N-(amino(2-(2-hydroxypropan-2-yl)thiazol-5-yl)(oxo)-λ^6-sulfaneylidene)-2-(6-ethyl-4-isopropyl-1,3-dihydroisobenzofuran-5-yl)acetamide]: 5 to 30 µM; for `CCc1cc2c(c(C(C)C)c1CC(=O)N=S(N)(=O)c1cc(C(C)(C)O)cs1)COC2` (single isomer, unassigned) [Example 295, (R) or (S)-N-(amino(4-(2-hydroxypropan-2-yl)thiophen-2-yl)(oxo)-λ^6-sulfaneylidene)-2-(6-ethyl-4-isopropyl-1,3-dihydroisobenzofuran-5-yl)acetamide]: 0.2 to 1 µM; for `CC(C)c1cc2c(c(C(C)C)c1CC(=O)N=S(N)(=O)c1ccc(C(C)(C)O)cc1)COC2` (single isomer, unassigned) [Example 301, (R) or (S)-N-(amino(4-(2-hydroxypropan-2-yl)phenyl)(oxo)-λ^6-sulfaneylidene)-2-(4,6-diisopropyl-1,3-dihydroisobenzofuran-5-yl)acetamide]: 1 to 5 µM. Still for that read-out and setting: for `CC(C)c1cc2c(c(C(C)C)c1CC(=O)N=S(N)(=O)c1cccc(C(C)(C)O)c1)COC2` (single isomer, unassigned) [Example 303, (R) or (S)-N-(amino(3-(2-hydroxypropan-2-yl)phenyl)(oxo)-λ^6-sulfaneylidene)-2-(4,6-diisopropyl-1,3-dihydroisobenzofuran-5-yl)acetamide] the value was 1 to 5 µM; for `CC(C)c1cc(C(F)F)nc(C(C)C)c1CC(=O)N=S(N)(=O)c1sc(CN(C)C)cc1F` (single isomer, unassigned) [Example 306, (R) or (S)-N-(amino(5-((dimethylamino)methyl)-3-fluorothiophen-2-yl)(oxo)-λ^6-sulfaneylidene)-2-(6-(difluoromethyl)-2,4-diisopropylpyridin-3-yl)acetamide], 0.2 to 1 µM; for `CC(C)c1cc2c(c(C(C)C)c1CC(=O)N=S(N)(=O)c1sc(CN(C)C)cc1F)COC2` (single isomer, unassigned) [Example 307, (R) or (S)-N-(amino(5-((dimethylamino)methyl)-3-fluorothiophen-2-yl)(oxo)-λ^6-sulfaneylidene)-2-(4,6-diisopropyl-1,3-dihydroisobenzofuran-5-yl)acetamide], 0.2 to 1 µM.

The same test, now with this note: Table B1; 2% fetal bovine serum; class symbols; read-out: hTHP-1 IC50 (Average IC50 of compounds in hTHP-1 assay).
As for `CCc1c2c(cc(C(C)C)c1CC(=O)N=S(N)(=O)c1cc(C(C)(C)O)cs1)COC2` (single isomer, unassigned) [Example 293, (R) or (S)-N-(amino(4-(2-hydroxypropan-2-yl)thiophen-2-yl)(oxo)-λ^6-sulfaneylidene)-2-(4-ethyl-6-isopropyl-1,3-dihydroisobenzofuran-5-yl)acetamide], the IC50 was in the range of 0.2 to 1 µM. With `CCc1c2c(cc(C(C)C)c1CC(=O)N=S(N)(=O)c1cc(C(C)(C)O)cs1)COC2` (single isomer, unassigned) [Example 294, (S) or (R)-N-(amino(4-(2-hydroxypropan-2-yl)thiophen-2-yl)(oxo)-λ^6-sulfaneylidene)-2-(4-ethyl-6-isopropyl-1,3-dihydroisobenzofuran-5-yl)acetamide], the IC50 is 5 to 30 µM. Still for that read-out and setting: for `CCc1cc2c(c(C(C)C)c1CC(=O)N=S(N)(=O)c1sc(C(C)(C)O)cc1F)COC2` (single isomer, unassigned) [Example 297, (R) or (S)-N-(amino (3-fluoro-5-(2-hydroxypropan-2-yl)thiophen-2-yl)(oxo)-λ^6-sulfaneylidene)-2-(6-ethyl-4-isopropyl-1,3-dihydroisobenzofuran-5-yl)acetamide] the value was 1 to 5 µM; for `CCc1cc2c(c(C(C)C)c1CC(=O)N=S(N)(=O)c1sc(C(C)(C)O)cc1F)COC2` (single isomer, unassigned) [Example 298, (S) or (R)-N-(amino(3-fluoro-5-(2-hydroxypropan-2-yl)thiophen-2-yl)(oxo)-λ^6-sulfaneylidene)-2-(6-ethyl-4-isopropyl-1,3-dihydroisobenzofuran-5-yl)acetamide], 5 to 30 µM. Consider `CCc1c2c(cc(C(C)C)c1CC(=O)N=S(N)(=O)c1sc(C(C)(C)O)cc1F)COC2` (single isomer, unassigned) [Example 299, (S) or (R)-N-(amino (3-fluoro-5-(2-hydroxypropan-2-yl)thiophen-2-yl)(oxo)-λ^6-sulfaneylidene)-2-(4-ethyl-6-isopropyl-1,3-dihydroisobenzofuran-5-yl)acetamide], for which the IC50 was 5 to 30 µM. Turning to `CCc1c2c(cc(C(C)C)c1CC(=O)N=S(N)(=O)c1sc(C(C)(C)O)cc1F)COC2` (single isomer, unassigned) [Example 300, (R) or (S)-N-(amino (3-fluoro-5-(2-hydroxypropan-2-yl)thiophen-2-yl)(oxo)-λ^6-sulfaneylidene)-2-(4-ethyl-6-isopropyl-1,3-dihydroisobenzofuran-5-yl)acetamide], the IC50 lay within 0.2 to 1 µM.
